Each structure is given as a SMILES string. Where “and” joins values, the source holds several entries; their conditions need not be identical. Identical values can stand only once.

The source of these data is US9850216B2 (H. LEE MOFFITT CANCER CENTER AND RESEARCH INSTITUTE, INC., priority 2013, dated 2017).

For one series, the target named is ACK1 (Homo sapiens, UniProt Q07912). Description: ACK1 ELISA: phosphorylation of AKT-derived peptide. Format: biochemical. As to conditions: 10 μM, Table 1, replicate values listed; for inhibition at 10 µM: read-out: % Inhibition at 10 μM (ELISA). For orientation: In an ELISA, binding on a coated surface is turned into a signal by an enzyme label.
ACK1, sequence (Q07912 whole entry): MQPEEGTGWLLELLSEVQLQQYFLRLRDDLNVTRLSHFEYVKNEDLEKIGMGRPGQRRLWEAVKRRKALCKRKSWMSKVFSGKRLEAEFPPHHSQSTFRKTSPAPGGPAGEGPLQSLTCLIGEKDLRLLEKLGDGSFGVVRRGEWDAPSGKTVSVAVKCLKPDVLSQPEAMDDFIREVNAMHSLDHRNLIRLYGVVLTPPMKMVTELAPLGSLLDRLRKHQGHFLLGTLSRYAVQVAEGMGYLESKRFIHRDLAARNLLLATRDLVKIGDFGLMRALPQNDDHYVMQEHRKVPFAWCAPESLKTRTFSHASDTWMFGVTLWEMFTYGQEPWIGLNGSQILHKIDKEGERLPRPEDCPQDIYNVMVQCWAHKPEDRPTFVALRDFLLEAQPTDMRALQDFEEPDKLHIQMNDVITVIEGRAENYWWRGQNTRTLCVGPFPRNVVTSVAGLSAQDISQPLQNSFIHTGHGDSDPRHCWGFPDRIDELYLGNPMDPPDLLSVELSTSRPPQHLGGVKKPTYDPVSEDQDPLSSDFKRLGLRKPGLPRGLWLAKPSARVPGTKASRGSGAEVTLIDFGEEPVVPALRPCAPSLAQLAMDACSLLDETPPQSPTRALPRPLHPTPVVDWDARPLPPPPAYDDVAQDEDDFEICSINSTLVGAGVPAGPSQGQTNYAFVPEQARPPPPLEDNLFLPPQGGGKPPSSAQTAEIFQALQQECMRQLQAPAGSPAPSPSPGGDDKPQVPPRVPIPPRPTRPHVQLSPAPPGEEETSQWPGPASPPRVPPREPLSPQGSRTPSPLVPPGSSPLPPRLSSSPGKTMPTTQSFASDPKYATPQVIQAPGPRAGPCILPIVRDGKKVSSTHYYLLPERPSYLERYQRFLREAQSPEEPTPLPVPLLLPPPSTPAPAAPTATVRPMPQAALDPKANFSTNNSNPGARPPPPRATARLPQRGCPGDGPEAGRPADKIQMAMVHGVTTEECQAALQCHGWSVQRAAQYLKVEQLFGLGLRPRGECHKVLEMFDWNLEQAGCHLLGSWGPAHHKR

In the case of `CC(C)Sc1ccccc1Nc1nc(Nc2ccc(O)cc2)ncc1C(=O)Nc1c(F)cccc1Cl` [YL7-045-4, N-(2-chloro-6-fluorophenyl)-2-(4-hydroxyphenylamino)-4-(2-(isopropylthio)phenylamino)pyrimidine-5-carboxamide], the melting point – broadly, the temperature, or range, at which the solid turns liquid – was 232 °C (dec.). Also, the inhibition (commonly how much of the control response was suppressed) at 10 µM on ACK1 came out at 0%.
On to `Cl.O=C(Nc1c(F)cccc1Cl)c1cnc(Nc2ccc(O)c(Cl)c2)nc1NCC1CCCO1` (stereo not drawn) [YL8-009-1, 2-(3-Chloro-4-hydroxyphenylamino)-N-(2-chloro-6-fluorophenyl)-4-((tetrahydrofuran-2-yl)methylamino)pyrimidine-5-carboxamide hydrochloride], for which the melting point was 158 °C (dec.). The % Inhibition (commonly the change of the read-out against control, counted positive when it falls) at 10 μM (ELISA) at ACK1 (hydrochloride) was 42% and 48%. Also, the inhibition at 10 µM at ACK1 was found to be 41%.
Regarding `CC(C)(C)OC(=O)N1CCN(c2ccc(Nc3ncc(Br)c(NCC4CCCO4)n3)cc2)CC1.Cl` (stereo not drawn) [YL9-157, tert-Butyl4-(4-(5-bromo-4-((tetrahydrofuran-2-yl)methylamino)pyrimidin-2-ylamino)phenyl)piperazine-1-carboxylate hydrochloride], the melting point is 124 °C (dec.). Besides, on ACK1 (hydrochloride), the “% Inhibition at 10 μM (ELISA)” value was found to be 46%. Also, the inhibition at 10 µM at ACK1 is 47%.
In turn, `CCS(=O)(=O)c1ccccc1Nc1nc(Nc2ccc(OC)cc2)ncc1C(=O)Nc1c(F)cccc1Cl` [YL7-058-1, N-(2-chloro-6-fluorophenyl)-4-(2-(ethylsulfonyl)phenylamino)-2-(4-methoxyphenylamino)pyrimidine-5-carboxamide] had a melting point of 263 to 265 °C. Besides, the “% Inhibition at 10 μM (ELISA)” value at ACK1 was −6% and 0%.
In the case of `COc1ccc(Nc2ncc(C(=O)Nc3c(F)cccc3Cl)c(Nc3ccccc3SC)n2)cc1` [YL7-039-1, N-(2-chloro-6-fluorophenyl)-2-(4-methoxyphenylamino)-4-(2-(methylthio)phenylamino)pyrimidine-5-carboxamide], the melting point is 261 °C (dec.). Moreover, on ACK1, the “% Inhibition at 10 μM (ELISA)” value is 7% and 0%.
Consider `Cc1ccc(Nc2ncc(Br)c(NCC3CCCO3)n2)cc1F.Cl` (stereo not drawn) [YL7-172-4, 5-Bromo-N2-(3-fluoro-4-methylphenyl)-N4-((tetrahydrofuran-2-yl)methyl)pyrimidine-2,4-diamine hydrochloride], for which the melting point was 189 °C (dec.). Besides, the “% Inhibition at 10 μM (ELISA)” value at ACK1 (hydrochloride) was 0% and −12% and 20%.
On to `Cl.NC(=O)c1ccc(Nc2ncc(Br)c(NCC3CCCO3)n2)cc1` (stereo not drawn) [YL7-172-5, 4-(5-Bromo-4-((tetrahydrofuran-2-yl)methylamino)pyrimidin-2-ylamino)benzamide hydrochloride], for which the melting point is 251 °C (dec.). For the same compound, the “% Inhibition at 10 μM (ELISA)” value on ACK1 (hydrochloride) was 31% and 77% and 82%.
As for `Cl.Fc1cc(Nc2ncc(Br)c(NCC3CCCO3)n2)ccc1Cl` (stereo not drawn) [YL7-172-7, 5-Bromo-N2-(4-chloro-3-fluorophenyl)-N4-((tetrahydrofuran-2-yl)methyl)pyrimidine-2,4-diamine hydrochloride], the melting point was 172 °C (dec.). For the same compound, on ACK1 (hydrochloride), the “% Inhibition at 10 μM (ELISA)” value is 0% and 5% and 3%.
Consider `COc1ccc(Nc2ncc(C(=O)Nc3c(F)cccc3Cl)c(Nc3ccccc3S(=O)(=O)C(C)C)n2)cc1` [YL7-045-1, N-(2-chloro-6-fluorophenyl)-4-(2-(isopropylsulfonyl)phenylamino)-2-(4-methoxyphenylamino)pyrimidine-5-carboxamide], for which the melting point is 246 °C (dec.). The “% Inhibition at 10 μM (ELISA)” value on ACK1 is 37% and 18%.
`CC(C)S(=O)(=O)c1ccccc1Nc1nc(Cl)ncc1C(=O)Nc1c(F)cccc1Cl` [YL7-041, 2-Chloro-N-(2-chloro-6-fluorophenyl)-4-(2-(isopropylsulfonyl)phenylamino)pyrimidine-5-carboxamide] came in with a melting point of 225 to 227 °C. For the same compound, the “% Inhibition at 10 μM (ELISA)” value at ACK1 is 7% and −21% and −27%.
On to `Cl.O=C(O)CCCc1ccc(Nc2ncc(Cl)c(NC[C@H]3CCCO3)n2)cc1` [NT1-026, (R)-4-(4-(5-Chloro-4-((tetrahydrofuran-2-yl)methylamino)pyrimidin-2-ylamino)phenyl)butanoic acid], for which the melting point is 180 °C (dec.). Further, on ACK1, the “% Inhibition at 10 μM (ELISA)” value is 65% and the inhibition at 10 µM was 55%.
Take `CN1CCN(c2ccc(Nc3nc(NCC4CCCO4)c4ccccc4n3)cc2)CC1` (stereo not drawn) [DZ1-106, N2-(4-(4-methylpiperazin-1-yl)phenyl)-N4-((tetrahydrofuran-2-yl)methyl)quinazoline-2,4-diamine]: the melting point is 60.1 °C (dec.). Besides, on ACK1, the “% Inhibition at 10 μM (ELISA)” value worked out at 14% and the inhibition at 10 µM came to 19%.
In the case of `CS(=O)(=O)c1ccccc1Nc1nc(Cl)ncc1C(=O)Nc1c(F)cccc1Cl` [YL7-034, 2-Chloro-N-(2-chloro-6-fluorophenyl)-4-(2-(methylsulfonyl)phenylamino)pyrimidine-5-carboxamide], the melting point is 211 to 214 °C. Besides, on ACK1, the “% Inhibition at 10 μM (ELISA)” value is 16% and −3% and −6%.
As for `CC(C)S(=O)(=O)c1ccccc1Nc1nc(Nc2ccc(S(N)(=O)=O)cc2)ncc1C(=O)Nc1c(F)cccc1Cl` [YL7-100-1], the melting point was 192 °C (dec.). For the same compound, on ACK1, the “% Inhibition at 10 μM (ELISA)” value came to 6% and the inhibition at 10 µM worked out at 8%.
In turn, `CCCSc1ccccc1Nc1nc(Nc2ccc(OC)cc2)ncc1C(=O)Nc1c(F)cccc1Cl` [YL7-055-3, N-(2-chloro-6-fluorophenyl)-2-(4-methoxyphenylamino)-4-(2-(propylthio)phenylamino)pyrimidine-5-carboxamide] came in with a melting point of 248 to 249 °C. For the same compound, the “% Inhibition at 10 μM (ELISA)” value at ACK1 was 1% and 13%.
`CC(C)(C)OC(=O)N1CCN(c2ccc(Nc3ncc(C(=O)Nc4c(F)cccc4Cl)c(NCC4CCCO4)n3)cc2)CC1.Cl` (stereo not drawn) [YL9-161, tert-Butyl4-(4-(5-(2-chloro-6-fluorophenylcarbamoyl)-4-((tetrahydrofuran-2-yl)methylamino)pyrimidin-2-ylamino)phenyl)piperazine-1-carboxylate hydrochloride]: the melting point is 184 to 186 °C. Also, the “% Inhibition at 10 μM (ELISA)” value at ACK1 (hydrochloride) stood at 31%. The inhibition at 10 µM at ACK1 turned out to be 28%.
Take `CCS(=O)(=O)c1ccccc1Nc1nc(Nc2ccc(O)cc2)ncc1C(=O)Nc1c(F)cccc1Cl` [YL7-058-2, N-(2-chloro-6-fluorophenyl)-4-(2-(ethylsulfonyl)phenylamino)-2-(4-hydroxyphenylamino)pyrimidine-5-carboxamide]: the melting point is 201 °C (dec.). Moreover, on ACK1, the “% Inhibition at 10 μM (ELISA)” value is 68% and 43%.
As to `CCCSc1ccccc1Nc1nc(Cl)ncc1C(=O)Nc1c(F)cccc1Cl` [YL7-051, 2-Chloro-N-(2-chloro-6-fluorophenyl)-4-(2-(propylthio)phenylamino)pyrimidine-5-carboxamide], the melting point is 197 to 200 °C. Moreover, the inhibition at 10 µM on ACK1 came to 0%.
On to `Cl.NS(=O)(=O)c1ccc(Nc2ncc(Br)c(NCC3CCCO3)n2)cc1` (stereo not drawn) [YL8-003-3, 4-(5-Bromo-4-((tetrahydrofuran-2-yl)methylamino)pyrimidin-2-ylamino)benzenesulfonamide hydrochloride], for which the melting point is 214 °C (dec.). Further, the “% Inhibition at 10 μM (ELISA)” value on ACK1 (hydrochloride) was 68% and 63%. Further, the inhibition at 10 µM on ACK1 worked out at 56%.
